Experimental findings from patent US8846788B2, “Polyacetal resin composition, resin molded article, and method and agent for improving polyacetal resin raw material composition” (Mitsubishi Engineering-Plastics Corporation, priority 2008, dated 2014) are described below.

Where only a bound is given, the exact number is not on record here.

One data set is described as follows: Solubility relative to 100 g of water at 20° C. The settings on record: per 100 g of water. Type of data set: physicochemical.
Take `NNC(=O)CCCCCCCCCCC(=O)NN` [Dihydrazide compound-2, 1,10-dodecane diacid dihydrazide]: the “solubility relative to 100 g of water” value was not above 0.01 g.
On to `NNC(=O)CCCCC(=O)NN` [Dihydrazide compound-3, adipic acid dihydrazide, reference compound], for which the “solubility relative to 100 g of water” value was determined as 9.1 g.
The same measure, in the same setting: the same measure for `NNC(=O)c1ccc(C(=O)NN)cc1` [Dihydrazide compound-1, terephthalic acid dihydrazide]: not above 0.01 g.
On the same count and under the same terms, next, `NNC(=O)CCCCCCCCCCCCCCCCCCC(=O)NN` [1,18-octadecane dicarbohydrazide]: not above 0.1 g; `NNC(=O)C(=O)NN` [oxalic acid dihydrazide]: not above 0.2 g.

The next data set can be described thus: Vapor pressure at 20° C. The class given is physicochemical.
Conditions: not given
Consider `CC(C)(c1ccccc1)c1cc(-n2nc3ccccc3n2)c(O)c(C(C)(C)c2ccccc2)c1` [Tinuvin 234, 2-(2H-benzotriazol-2-yl)-4,6-bis(1-methyl-1-phenylethyl)phenol], for which the vapor pressure is listed as 2.0×10^−10 Pa.
